From patent US20140356854A1, “METHODS AND COMPOSITIONS RELATING TO MEVALONATE PHOSPHATE DECARBOXYLASE” (Salk Institute for Biological Studies, priority 2013, published 2014)
“And” between values parts separate entries of the source, which are not always exact repeats. Identical values can stand only once. Like-named read-outs stand apart in the source and are kept apart here.

Assays:
IPK from A. thaliana = IPK from A. thaliana (Arabidopsis thaliana, UniProt Q8H1F7); experiment: Kinetics, coupled assay, IPK
IPK from B. floridae = IPK from B. floridae (Branchiostoma floridae, UniProt A0A9J7KY69); experiment: Steady-state kinetics, coupled assay, IPK
IPK from M. maripaludis = IPK from M. maripaludis (Methanococcus maripaludis, UniProt Q6LWR2); experiment: Steady-state kinetics, coupled pyruvate kinase-lactate dehydrogenase assay, IPK
PMK from S. solfataricus = PMK from S. solfataricus (Saccharolobus solfataricus, UniProt Q97UL6); experiment: Steady-state kinetics, coupled assay, PMK; assay type: biochemical
[1] = test system: MPD from R. castenholzii (SEQ ID NO: 1); experiment: Steady-state kinetics, coupled assay, MPD; assay type: biochemical
Protocol: (§1) Instead, it behaves as an MPD and catalyzes the decarboxylation of MVAP (3) to IP (4) with a kcat of 0.94 s^−1 and an apparent KM for MVAP of 1.150 mM (Table 2). This enzyme, by sequence homologous to MDD, has acquired an unexpected new function as a bona fide MPD playing the role of the long sought MPD of the alternative MVA pathway.
(§2) Steady-state kinetic analyses.

PMK from B. floridae = PMK from B. floridae (Branchiostoma floridae, UniProt C3Y1G0); experiment: Steady-state kinetics, coupled assay, PMK; assay type: biochemical; settings: substrate MVAP
[2] = test system: PMK and MDD from A. thaliana; experiment: GC-MS in vitro classical MVA pathway reaction; assay type: biochemical; settings: A. thaliana enzymes, 500 μM (RS)-MVAP, relative to FPP control
Protocol: (§3) GC-MS quantification of fully functional alternative and classical MVA pathways. To confirm that the functional R. castenholzii MPD (MDD-like protein sequence) catalyzes the transformation of MVAP (3) to IP (4) in a reconstituted in vitro pathway, a five-enzyme in vitro reaction mixture was assembled. Briefly, MVAP (3) and ATP were incubated for 30 min with MPD and IPK from R. castenholzii. The reaction mixture was then diluted into a mixture containing all necessary downstream enzymes to biosynthesize the GC-detectable sesquiterpene 5-epi-aristolochene (5-EA, 6). Similar reactions were performed for the in vitro reconstitution of the classical MVA pathway using PMK and MDD from each respective organism.
(§4) All GC-MS assays were carried out in two steps. First, 1 μM of each of two enzymes (PMK and MDD for the classical MVA pathway, MDD and IPK for the alternative MVA pathway) was incubated for 30 min with 500 μM (RS)-MVAP, 4 mM ATP, and 10 mM MgCl2 buffered with 50 mM Tris-HCl, pH 8.0. Second, 40 μl of this reaction was transferred to a glass vial containing 10 mM MgCl2 buffered with 50 mM Tris-HCl, pH 8.0, containing at least a 150-fold excess of each of the following enzymes: E. coli isopentenyl diphosphate isomerase (IPPI), E. coli farnesyl diphosphate synthase (FPPS), and tobacco 5-epi-aristolochene synthase (TEAS). This reaction mixture was overlaid with ethyl acetate, incubated overnight, and vortexed to extract hydrocarbons from the aqueous layer. GC-MS assays were performed as previously described (18). All values were compared to a control reaction, where FPP was added in place of MVA pathway enzymes at an appropriate concentration to simulate complete turnover of MVAP.

[3] = test system: PMK and MDD from B. floridae; experiment: GC-MS in vitro classical MVA pathway reaction; assay type: biochemical; settings: B. floridae enzymes, 500 μM (RS)-MVAP, relative to FPP control
Protocol: as §3, §4

[4] = test system: PMK and MDD from S. solfataricus; experiment: GC-MS in vitro classical MVA pathway reaction; assay type: biochemical; settings: S. solfataricus enzymes, 500 μM (RS)-MVAP, relative to FPP control
Protocol: as §3, §4

[5] = test system: R. castenholzii MDD homolog with B. floridae PMK; assay type: biochemical
[6] = test system: MPD and IPK from R. castenholzii; experiment: GC-MS in vitro alternative MVA pathway reaction; assay type: biochemical
Protocol: as §3
All GC-MS assays were carried out in two steps. First, 1 μM of each of two enzymes (PMK and MDD for the classical MVA pathway, MDD and IPK for the alternative MVA pathway) was incubated for 30 min with 500 μM (RS)-MVAP, 4 mM ATP, and 10 mM MgCl2 buffered with 50 mM Tris-HCl, pH 8.0. Second, 40 μl of this reaction was transferred to a glass vial containing 10 mM MgCl2 buffered with 50 mM Tris-HCl, pH 8.0, containing at least a 150-fold excess of each of the following enzymes: E. coli isopentenyl diphosphate isomerase (IPPI), E. coli farnesyl diphosphate synthase (FPPS), and tobacco 5-epi-aristolochene synthase (TEAS). […]

[7] = test system: IPK and MDD from A. thaliana; experiment: GC-MS in vitro alternative MVA pathway reaction; assay type: biochemical
Source text: (§5) The in vitro classical MVA pathway reactions for S. solfataricus, A. thaliana, and B. floridae yield 39.2%, 48.7%, and 52.1% conversion of MVAP (3) to 5-EA (6), respectively (FIG. 3). The in vitro classical MVA pathway reaction from R. castenholzii (using B. floridae PMK to complete the missing step) yields less then 0.2% conversion to 5-EA (FIG. 3). In contrast, the in vitro alternative MVA pathway from R. castenholzii enzymes yields a 2.0% conversion of MVAP (3) to 5-EA (6). B. floridae, A. thaliana, and S. solfataricus were tested for a possible alternative MVA pathway components using their IPKs and MDDs.
as §4

[8] = test system: IPK and MDD from B. floridae; experiment: GC-MS in vitro alternative MVA pathway reaction; assay type: biochemical
Source text: as §5, §4

[9] = test system: IPK and MDD from S. solfataricus; experiment: GC-MS in vitro alternative MVA pathway reaction; assay type: biochemical
Source text: as §5, §4

MJ0403 = MJ0403 (Methanocaldococcus jannaschii, UniProt Q57846); experiment: In vitro decarboxylase activity of MJ0403; assay type: biochemical, M. jannaschii
Source text: MJ0403 encodes a protein that is similar in sequence to subunit B of class III extradiol ring-cleavage dioxygenases and is also homologous to the human protein MEMO (mediator of erbB2-driven cell motility).

[10] = test system: MDD homolog from R. castenholzii; experiment: Steady-state kinetics, MDD homolog tested as MDD; assay type: biochemical
Protocol: as §1, §2

MDD from B. floridae = MDD from B. floridae (Branchiostoma floridae, UniProt C3ZGP5); experiment: Steady-state kinetics, coupled assay, MDD; assay type: biochemical; settings: substrate MVAPP
MDD from S. solfataricus = MDD from S. solfataricus (Saccharolobus solfataricus, UniProt Q97UL5); experiment: Steady-state kinetics, MDD; assay type: biochemical; settings: steady state conditions, kinetic parameters could not be assigned
[11] = substrate: CC(O)(CCOP(=O)(O)OP(=O)(O)O)CC(=O)O; experiment: purified protein, by the assay type; settings: other: substrate MVAPP; A. thaliana MDD
[12] = substrate: C=C(C)CCOP(=O)(O)O; experiment: purified protein, by the assay type; settings: other: substrate IP
[13] = substrate: CC(O)(CCOP(=O)(O)O)CC(=O)O; experiment: purified protein, by the assay type; settings: other: substrate MVAP; A. thaliana PMK

Chain of MDD from B. floridae (C3ZGP5 1-409): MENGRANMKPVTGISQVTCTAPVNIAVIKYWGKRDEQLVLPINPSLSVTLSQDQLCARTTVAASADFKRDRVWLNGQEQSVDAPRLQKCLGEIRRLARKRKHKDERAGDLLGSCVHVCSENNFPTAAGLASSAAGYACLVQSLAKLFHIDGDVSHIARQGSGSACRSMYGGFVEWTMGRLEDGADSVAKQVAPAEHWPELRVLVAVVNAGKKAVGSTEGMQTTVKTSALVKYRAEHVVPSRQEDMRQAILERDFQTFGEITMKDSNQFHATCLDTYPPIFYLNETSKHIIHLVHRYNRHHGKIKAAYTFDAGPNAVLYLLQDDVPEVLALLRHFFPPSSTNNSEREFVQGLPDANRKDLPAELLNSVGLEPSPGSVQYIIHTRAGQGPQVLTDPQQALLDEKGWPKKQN
Chain of PMK from S. solfataricus (Q97UL6 whole entry): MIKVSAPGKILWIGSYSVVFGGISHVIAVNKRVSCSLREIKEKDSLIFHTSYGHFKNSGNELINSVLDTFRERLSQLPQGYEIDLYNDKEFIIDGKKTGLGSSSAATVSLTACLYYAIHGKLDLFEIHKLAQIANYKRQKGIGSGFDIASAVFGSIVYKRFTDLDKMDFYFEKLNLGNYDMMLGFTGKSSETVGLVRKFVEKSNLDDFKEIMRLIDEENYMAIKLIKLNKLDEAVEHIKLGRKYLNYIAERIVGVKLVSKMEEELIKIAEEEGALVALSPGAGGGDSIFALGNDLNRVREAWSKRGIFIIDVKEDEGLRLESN
Chain of MJ0403 (Q57846 whole entry): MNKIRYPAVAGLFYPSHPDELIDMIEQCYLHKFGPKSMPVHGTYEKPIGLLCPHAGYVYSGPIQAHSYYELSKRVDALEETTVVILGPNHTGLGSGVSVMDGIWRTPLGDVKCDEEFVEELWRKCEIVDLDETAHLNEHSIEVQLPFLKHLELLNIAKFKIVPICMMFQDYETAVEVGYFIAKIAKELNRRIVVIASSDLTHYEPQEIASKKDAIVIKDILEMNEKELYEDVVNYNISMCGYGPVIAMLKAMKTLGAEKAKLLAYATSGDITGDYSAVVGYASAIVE
Chain of PMK from B. floridae (C3Y1G0 1-201): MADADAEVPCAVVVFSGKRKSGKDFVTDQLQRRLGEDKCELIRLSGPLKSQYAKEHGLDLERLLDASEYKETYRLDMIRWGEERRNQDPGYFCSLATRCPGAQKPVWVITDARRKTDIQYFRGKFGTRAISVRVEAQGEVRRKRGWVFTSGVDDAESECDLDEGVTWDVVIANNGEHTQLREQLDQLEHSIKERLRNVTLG
Chain of MDD from S. solfataricus (Q97UL5 whole entry): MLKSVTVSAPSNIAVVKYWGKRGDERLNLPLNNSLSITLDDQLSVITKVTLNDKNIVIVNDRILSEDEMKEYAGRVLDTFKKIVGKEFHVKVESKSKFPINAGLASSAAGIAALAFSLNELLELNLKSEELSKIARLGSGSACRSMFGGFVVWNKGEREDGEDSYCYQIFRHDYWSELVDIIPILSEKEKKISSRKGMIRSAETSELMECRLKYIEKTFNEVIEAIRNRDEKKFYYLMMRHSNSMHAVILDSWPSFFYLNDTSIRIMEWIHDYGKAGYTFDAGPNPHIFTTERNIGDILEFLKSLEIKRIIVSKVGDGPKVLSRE

C=C(C)CCOP(=O)(O)O [IP, isopentenyl phosphate]
Ki (IPK from A. thaliana): 522 µM
Ki (IPK from B. floridae): 2820 µM
Ki (IPK from M. maripaludis): 877 µM

CC(O)(CCOP(=O)(O)O)CC(=O)O (stereo not shown) [MVAP, phosphomevalonate]
Ki (PMK from S. solfataricus): 5500 µM
kcat (PMK from S. solfataricus; substrate MVAP, S. solfataricus PMK): 1.98 (±0.10) s^−1
Km ([1]; decarboxylation of MVAP to IP, read-out: apparent KM for MVAP): 1150 µM
kcat ([1]; substrate MVAP): 0.94 s^−1 and 0.94 (±0.08) s^−1
Km ([1]; substrate MVAP, read-out: KM): 1150 µM
kcat (PMK from B. floridae): 12.6 (±0.4) s^−1
conversion of MVAP to 5-EA [2]: 48.7%
conversion of MVAP to 5-EA [3]: 52.1%
conversion of MVAP to 5-EA [4]: 39.2%
conversion to 5-EA [5]: < 0.2%
conversion of MVAP to 5-EA [6]: 2.0%
5-EA formation [7]: do not yield any detectable 5-EA
5-EA formation [8]: do not yield any detectable 5-EA
5-EA formation [9]: do not yield any detectable 5-EA
turnover of MVAP (decarboxylase activity) (MJ0403): failed to show any turnover

CC(O)(CCOP(=O)(O)OP(=O)(O)O)CC(=O)O (racemic) [MVAPP, diphosphomevalonate]
decarboxylation of MVAPP to IPP at a measurable rate [10]: does not catalyze
Km (MDD from B. floridae): 15.1 µM
kcat (MDD from B. floridae): 1.36 (±0.09) s^−1
rate of decarboxylation of MVAPP (MDD from S. solfataricus): very slow rate

B1: MDD from A. thaliana (Arabidopsis thaliana) (protein)
chain: MAEEKWVVMVTAQTPTNIAVIKYWGKRDEVRILPINDSISVTLDPDHLCTLTTVAVSPSFDRDRMWLNGKEISLSGSRYQNCLREIRSRADDVEDKEKGIKIAKKDWEKLHLHIASHNNFPTAAGLASSAAGFACLVFALAKLMNVNEDPSQLSAIARQGSGSACRSLFGGFVKWNMGNKEDGSDSVAVQLVDDKHWDDLVIIIAVVSSRQKETSSTSGMRESVETSLLLQHRAKEVVPVRILQMEEAIKNRDFTSFTKLTCSDSNQFHAVCMDTSPPIFYMNDTSHRIISLVEKWNRSAGTPEIAYTFDAGPNAVMIARNRKVAVELLQGLLYCFPPKPDTDMKSYVLGDTSIVKEAGLEGELPQGIKDKIGSQDQKGEVSYFICSRPGRGPVVLQDQTQALLHPQTGLPK
Km [11]: 15.7 (±5.0) μM
kcat [11]: 2.02 ± 0.13 s⁻¹
kcat/Km [11]: 130000 ± 40000 M⁻¹ s⁻¹

B2: IPK from B. floridae (Branchiostoma floridae) (protein)
chain: MVSSSRSKVMAEADASLECIVKLGGSAVTDKSTLETPRLDAIRAAADIISQVRGRCIVVHGAGSFGHFQAREHGVVWGYRDKETDTEVQTVKLGFCRTRQSVTKLLHIITEEFVRLGIPAVGVSPLSSWVTDDASVVKADTDNIRDMLLEGFLPVMHGDAVLDRKRGCTILSGDTIIKHLCSVFRPPRVVFLTDVPGIYDRPPEQPGAQLIPEIQVDRDRKLHVSIATSSQAHDVTGGIALKLKSAIDIVTESNGHTCVMVCGIQSQAAVRACVEGQLPQGTGTIVQLNISKHPDEVT
Km ([12]; B. floridae IPK): 13.3 (±2.0) μM
kcat ([12]; B. floridae IPK): 27.2 s⁻¹
kcat/Km ([12]; B. floridae IPK): 2.05e+06 M⁻¹ s⁻¹

B3: PMK from A. thaliana (Arabidopsis thaliana) (protein)
chain: MAVVASAPGKVLMTGGYLVLEKPNAGLVLSTNARFYAIVKPINEEVKPESWAWKWTDVKLTSPQLSRESMYKLSLNHLTLQSVSASDSRNPFVEHAIQYAIAAAHLATEKDKESLHKLLLQGLDITILGSNDFYSYRNQIESAGLPLTPESLGTLAPFASITFNAAESNGANSKPEVAKTGLGSSAAMTTAVVAALLHYLGVVDLSDPCKEGKFGCSDLDVIHMIAQTSHCLAQGKVGSGFDVSCAVYGSQRYVRFSPEVLSFAQVAVTGLPLNEVIGTILKGKWDNKRTEFSLPPLMNLFLGEPGSGGSSTPSMVGAVKKWQMSDPEKARENWQNLSDANLELETKLNDLSKLAKDHWDVYLRVIKSCSVLTSEKWVLHATEPINEAIIKELLEAREAMLRIRILMRQMGEAASVPIEPESQTQLLDSTMSAEGVLLAGVPGAGGFDAIFAITLGDSGTKLTQAWSSHNVLALLVREDPHGVCLESGDPRTTCITSGVSSIHLE
Km [13]: 11.8 (±2.0) μM
kcat [13]: 20.9 ± 0.7 s⁻¹
kcat/Km [13]: 1.77e+06 ± 310000 M⁻¹ s⁻¹

B4: IPK from A. thaliana (Arabidopsis thaliana) (protein)
chain: MELNISESRSRSIRCIVKLGGAAITCKNELEKIHDENLEVVACQLRQAMLEGSAPSKVIGMDWSKRPGSSEISCDVDDIGDQKSSEFSKFVVVHGAGSFGHFQASRSGVHKGGLEKPIVKAGFVATRISVTNLNLEIVRALAREGIPTIGMSPFSCGWSTSKRDVASADLATVAKTIDSGFVPVLHGDAVLDNILGCTILSGDVIIRHLADHLKPEYVVFLTDVLGVYDRPPSPSEPDAVLLKEIAVGEDGSWKVVNPLLEHTDKKVDYSVAAHDTTGGMETKISEAAMIAKLGVDVYIVKAATTHSQRALNGDLRDSVPEDWLGTIIRFSK
Km ([12]; A. thaliana IPK): 0.79 (±0.35) μM
kcat ([12]; A. thaliana IPK): 1.9 s⁻¹
kcat/Km ([12]; A. thaliana IPK): 2.4e+06 M⁻¹ s⁻¹

B5: IPK from T. adhaerens (Trichoplax adhaerens) (protein)
chain: MALENRHVDCIIKLGGSAITSKQHLEKANTQAINIAASHVHEMTRKCVIVHGAGSFGHFHAKKYNIATGFNDTDFEQQRIGFSQTRLSVTKLNHIIVQALIEKDVPAVSISPCGLWKTTDRSVTSTFLQPINDLLRAGFVPVVHGDAVIDTSLGCTILSGDTIIQILAENLCPKRIIFITDTNGIYDRPPHNDDAKLLRYISVTKDGKVTNEIETSQLEHDVTGGVQTKIASAAHIVSKCNIPVHVVKLGSAAAWKLLDKGELEESDIATTITLQESEYPK
Km ([12]; T. adhaerens IPK): 3.1 (±1.6) μM
kcat ([12]; T. adhaerens IPK): 2.4 s⁻¹
kcat/Km ([12]; T. adhaerens IPK): 770000 M⁻¹ s⁻¹

B6: IPK from M. maripaludis (Methanococcus maripaludis S2) (protein)
chain: MFAILKLGGSILCDKNIPYSINWENLENIAIEIKEAIEYYKSKNEEFKLIIVHGGGSFGHPVAKKYLKDGKFVDMGKGYWEIQKAMRKFNNIVIEELQNFEIPAVSIQASSFITFDNESNLHFDTNAVEKMLDKGLIPVIHGDIVIDEKTDNFKIFSGDHALPFLSKKLNPDLSLHASDVDGVWDLNFKIIENINSKNIEDVLKSLKPSNKEDVTGGMHLKVMECYNLGIKTIIFNGNKKRNIYNALLKNVKGTLIN
Km ([12]; M. maripaludis IPK): 21.4 (±4.3) μM
kcat ([12]; M. maripaludis IPK): 15.2 s⁻¹
kcat/Km ([12]; M. maripaludis IPK): 710000 M⁻¹ s⁻¹
